Test results published in patent publication US20240067672A1, “FLAVONE DERIVATIVE FOR TREATING TUMORS AND USE THEREOF” (SICHUAN FUSHENGYUAN TECHNOLOGY CO., LTD, priority 2019, published 2024).
Converted amounts (≈) assume the structure as drawn. Where two headings read alike, the source gives them in different places.

Columns and labels:
[1] = Determination of solubility (HPLC); type: physicochemical; details: for solubility: thermodynamic from solid
Method: About 1.325 mg of Icaritin and the synthesized derivative were weighed and dissolved in 1.5 mL methanol respectively, then diluted with methanol into solutions of 10, 20, 50, 100, 150, 200, 500 μg/mL, and filtered over an organic-system filter head of 0.45 μm into sample bottles, obtaining the samples for test. Four parts of Icaritin and the synthesized derivative were weighed respectively, 1.00 mg for each part, and placed into 1.5 mL EP tubes, and 1 mL of water, normal saline, PBS, and 0.1% Tween 80 were respectively added thereto. The obtained solutions were ultrasonicated for 1 h, placed in a water bath at 37° C. overnight, and centrifuged at 10000 r/min for 3 min to collect supernatants. The supernatants were taken into sample bottles and detected by HPLC. The experiments were conducted in parallel for three times. The detection of HPLC is conducted under conditions of a chromatographic column of waters Symmetry C18, a mobile phase of a solution of methanol and water with a ratio of 80:20, a flow rate of 1.0 mL/min, a column temperature of 30° C., a detection wavelength of 210 nm, a run time of 30 min, and a sample load of 20 μL.

[2] = system: HepG2 subcutaneous tumor; assay: Anti-tumor activity in vivo, HepG2 nude mouse model; parameters: species or system Balb/c nude mice; details: HepG2 nude mice, intraperitoneally every day for 21 days; for anti-tumor activity in vivo (tumor volume, FIG. 1): high and low dose; for tumor inhibition rate: equal mole of Icaritin (Icaritin 10 mg/kg)
Description: According to the investigation results of solubility and cell activity, compounds 51 and 57 with high solubility and strong cell activity were selected to evaluate the anti-hepatoma activity in vivo on HepG2 nude mouse models.
Human hepatoma cells HepG2 were cultivated to logarithmic growth phase in DMEM culture medium containing 10% fetal calf serum and 1% antibiotics (penicillin and streptomycin), and digested by adding 0.25% pancreatin. After the resulting cells were cultivated in DMEM and the pancreatin was removed, they were centrifuged at 1000 rpm for 3 min. Then the cells were collected and washed with free medium until no bubbles produced as observed by naked eyes, and then ° entrifuged. After discarding the supernatant, the cells were resuspended with free medium adjust the cell density to 1×10^6/100 μL.
70 Balb/c nude mice raised in an SPF-grade animal house were taken. 100 μL, HepG2 cells were inoculated subcutaneously at the right lateral rib of each nude mouse. The growing status of nude mice was observed and the subcutaneous tumor volume was measured every day. One week after inoculation, obvious nodules were formed subcutaneously in nude mice. Administration was initiated when the tumor grew to 100 mm^3.
Tumor volume increased to 80-120 mm^3 at two weeks after inoculation, marked as Day 0. The nude mice were randomly divided into 6 groups with 6 mice in each group: a normal saline group (control), an Icaritin group (Icarian), a yyhs-i-b high dose group, a yyhs-1-b low dose group, a yyhs-2-a high dose group, and a yyhs-2-a low dose group. Administration was performed intraperitoneally every day for 21 days totally.
The administration doses were: Icarian at 10 mg/kg, compound 51 high dose at 25.30 mg/kg, low dose at 12.65 mg/kg, compound 57 high dose at 22.91 mg/kg, and low dose at 11.45 mg/kg.
From day 0, the body weights and tumor volumes of nude mice were measured once every three days, in which the maximum diameter (a) of tumor was measured first, and then the longest radial line length (b) perpendicular to the maximum diameter line was measured, in mm, thereby calculating the tumor volume according to the following formula: […]
At the end of the treatment cycle, blood was taken from orbital vein of the nude mice for later blood routine test. Then the nude mice were sacrificed using cervical vertebra dislocation. After taking photos, the tumors were stripped immediately and photographed for record. From day 0, the body weights of each group of nude mice were weighed and recorded every 3 days, and at the same time, the tumor volumes of these nude mice were recorded. The average body weight and tumor volume were calculated for each group, and the curve of body weight versus tumor volume of the nude mice was plotted according to the statistical data.
The hearts, livers, spleens, lungs, and kidneys were subsequently picked from the nude mice, soaked with 4% paraformaldehyde and then preserved at a low temperature of 4° C. for later investigation of the mechanism of the anti-tumor in vivo. The tumor volume growth curve was plotted with the time as the horizontal coordinate, and with the tumor volume as the vertical coordinate. The tumor volume growth curves and the appearance of tumors are seen in FIG. 1. The body weight changing curves of mice are plotted in FIG. 2, with the time as the horizontal coordinate, and the body weight of mice as the vertical coordinate.

[3] = system: HepG2 hepatoma cells; assay: Anti-tumor activity in vitro, MTT method, HepG2; type: cell-based, human; details: for IC50 compared with Icaritin, HepG2 72 h: HepG2, 72 h after administration; for IC50 compared with Icaritin, 48 and 72 h: HepG2 and SMMC7721, 48 and 72 h; for IC50: MTT
Method: (§1) The effects of Icaritin and its derivatives on the activities of HepG2 and SMMC7721 hepatoma cells were investigated by a MTT method. […] After reaction for 48, 7 2 h, each well was added with 20 μL 5 mg/mL, of MTT solution, and incubated in a cell incubator for 3-4 h. Then the liquid in the well plates was sucked to discard. Each well was added with 150 μL of dimethyl sulfoxide (DMSO), and shaken on an enzyme-labeled instrument for 30 s at ambient temperature so that the Formazan crystals were dissolved sufficiently. The absorbance value A of each well at 570 nm was detected by the enzyme-labeled instrument, and the experiment was repeated for 3 times.

[4] = system: SMMC7721 hepatoma cells; assay: Anti-tumor activity in vitro, MTT method, SMMC7721; type: cell-based, human; details: for IC50: MTT; for IC50 compared with Icaritin, SMMC7721 72 h: SMMC7721, 72 h after administration
Method: as §1

[5] = Homo sapiens, HepG2, 48 h, read-out: IC50 HepG2 48 h
[6] = Homo sapiens, HepG2, 72 h, read-out: IC50 HepG2 72 h
[7] = Homo sapiens, SMMC-7721, SMMC7721, 48 h, read-out: IC50 SMMC7721 48 h
[8] = Homo sapiens, SMMC-7721, SMMC7721, 72 h, read-out: IC50 SMMC7721 72 h

Row | solubility compared with that of the bulk drug (Icaritin) [1] | IC50 compared with Icaritin, HepG2 72 h [3] | IC50 compared with Icaritin, 48 and 72 h [3] | IC50 [3, 5] | IC50 [3, 6] | IC50 [4, 7] | IC50 [4, 8] | IC50 compared with Icaritin, SMMC7721 72 h [4] | Compound | anti-tumor activity in vivo (tumor volume, FIG. 1) [2] | tumor inhibition rate [2] | also measured
1 | improved effectively | less than that of Icaritin | less than those of Icaritin | 14.9 ± 0.22 µM | 7.09 ± 0.38 µM | 9.3 ± 0.35 µM | 5.99 ± 0.49 µM | less than that of Icaritin | COc1ccc(-c2oc3c(CC=C(C)C)c(O)cc(O)c3c(=O)c2OC(=O)CCC(=O)OCCOCCOCCOCCOCc2cn(CCO[C@H]3O[C@@H](CO)[C@H](O)[C@@H](O)[C@@H]3O)nn2)cc1 [Compound 51] | excellent anti-tumor activities in vivo and are dose-dependent | 95% | solubility ([1]; 37 °C, aqueous buffer): 48.5 ± 0.948 µg/mL (≈ 52 µM); solubility ([1]; 37 °C, aqueous with cosolvent or surfactant or cyclodextrin): 51.5 ± 1.23 µg/mL (≈ 55.3 µM); solubility ([1]; 37 °C, saline or isotonic): 47.9 ± 0.993 µg/mL (≈ 51.4 µM); solubility ([1]; 37 °C, water): 50.3 ± 1.31 µg/mL (≈ 54 µM)
2 | improved effectively | less than that of Icaritin | less than those of Icaritin | – | – | – | – | less than that of Icaritin | COc1ccc(-c2oc3c(CC=C(C)C)c(O)cc(O)c3c(=O)c2OC(=O)CCC(=O)OCCOCCOCCOCc2cn(C3OC(CO)C(O)C(O)C3O)nn2)cc1 (stereo not shown) [Compound 57] | excellent anti-tumor activities in vivo and are dose-dependent | 90% | Solubility, 0.1% Tween 80 [1]: 6.508 ± 0.742 µg/mL (≈ 7.71 µM); Solubility, Normal Saline [1]: 16.383 ± 0.941 µg/mL (≈ 19.4 µM); Solubility, PBS [1]: 16.391 ± 1.029 µg/mL (≈ 19.4 µM); Solubility, Water [1]: 17.710 ± 1.012 µg/mL (≈ 21 µM); IC50 ([3]; HepG2, 48 h, read-out: IC50 HepG2 48 h): 10.3 ± 1.19 µM; IC50 ([3]; HepG2, 72 h, read-out: IC50 HepG2 72 h): 7.91 ± 0.98 µM; IC50 ([4]; SMMC7721, 48 h, read-out: IC50 SMMC7721 48 h): 10.3 ± 1.19 µM; IC50 ([4]; SMMC7721, 72 h, read-out: IC50 SMMC7721 72 h): 5.82 ± 1.04 µM
3 | – | – | – | 20.6 ± 2.82 µM | 16.1 ± 1.27 µM | 23.2 ± 1.02 µM | 15 ± 0.66 µM | – | COc1ccc(-c2oc3c(CC=C(C)C)c(O)cc(O)c3c(=O)c2O)cc1 [Icaritin, reference compound] | – | 53% | solubility ([1]; aqueous buffer, PBS, 37° C. overnight, n = 3, read-out: Solubility, PBS): 8.1 ± 0.897 µg/mL (≈ 22 µM); solubility ([1]; aqueous with cosolvent or surfactant or cyclodextrin, 0.1% Tween 80, 37° C. overnight, n = 3, read-out: Solubility, 0.1% Tween 80): 8.11 ± 0.672 µg/mL (≈ 22 µM); solubility ([1]; saline or isotonic, normal saline, 37° C. overnight, n = 3, read-out: Solubility, Normal Saline): 8.1 ± 1.01 µg/mL (≈ 22 µM); solubility ([1]; water, 37° C. overnight, n = 3, read-out: Solubility, Water): 8.57 ± 0.832 µg/mL (≈ 23.3 µM)
